Assays:
[1] = Metabolic stability in rat liver microsomes assessed as parent compound remaining at 0.1 uM in presence of NADPH after 30 mins by LC-MS/MS analysis; assay type: ADME, microsome; details: read-out: Stability
[2] = Metabolic stability in mouse liver microsomes assessed as parent compound remaining at 0.1 uM in presence of NADPH after 30 mins by LC-MS/MS analysis; assay type: ADME, microsome; details: read-out: Stability
[3] = Metabolic stability in human liver microsomes assessed as parent compound remaining at 0.1 uM in presence of NADPH after 30 mins by LC-MS/MS analysis; assay type: ADME, microsome; details: read-out: Stability
[4] = Octanol-phosphate buffer distribution coefficient, log D of the compound at pH 7.4 measured after 1 hr by HPLC method; assay type: physicochemical
Mus musculus [5] = experiment: AUC in humanized NOD-scid IL2Rgamma null mouse infected with Plasmodium falciparum 3D70087/N9 at 10 mg/kg, po up to 24 hrs post dose by LC-MS/MS analysis; assay type: ADME, organism-based; set-up: time < 24 hr, dose 10 mg/kg, route oral; details: in vivo
Mus musculus [6] = experiment: AUC in humanized NOD-scid IL2Rgamma null mouse infected with Plasmodium falciparum 3D70087/N9 at 50 mg/kg, po up to 24 hrs post dose by LC-MS/MS analysis; assay type: ADME, organism-based; set-up: time < 24 hr, dose 50 mg/kg, route oral; details: in vivo
[7] = Tmax in humanized NOD-scid IL2Rgamma null mouse infected with Plasmodium falciparum 3D70087/N9 at 10 mg/kg, po up to 96 hrs post dose by LC-MS/MS analysis; assay type: ADME, organism-based; details: in vivo
[8] = Cmax in humanized NOD-scid IL2Rgamma null mouse infected with Plasmodium falciparum 3D70087/N9 at 5 mg/kg, po up to 96 hrs post dose by LC-MS/MS analysis; assay type: ADME, organism-based; set-up: dose 5 mg/kg, route oral; details: in vivo
Mus musculus [9] = experiment: AUC (0 to infinity) in Balb/c mouse at […], iv by LC-MS analysis; assay type: ADME, organism-based; set-up: dose 1.5 mg/kg, time infinity, route intravenous; details: in vivo
[10] = In vivo drug metabolism in Balb/c mouse assessed as naphthyridine core or pyridine substituent oxidation metabolite formation in plasma at 5 mg/kg, po or […], iv by LC-MS analysis; assay type: ADME, organism-based
[11] = Cmax in humanized NOD-scid IL2Rgamma null mouse infected with Plasmodium falciparum 3D70087/N9 at […], po up to 96 hrs post dose by LC-MS/MS analysis; assay type: ADME, organism-based; set-up: dose 2.5 mg/kg, route oral; details: in vivo
[12] = Cmax in humanized NOD-scid IL2Rgamma null mouse infected with Plasmodium falciparum 3D70087/N9 at 50 mg/kg, po up to 96 hrs post dose by LC-MS/MS analysis; assay type: ADME, organism-based; set-up: dose 50 mg/kg, route oral; details: in vivo
[13] = Apparent half life in Balb/c mouse pretreated with CYP inhibitor ABT at 5 mg/kg, po by LC-MS analysis; assay type: ADME, organism-based; details: in vivo, read-out: t1/2(app) (converted)
[14] = Tmax in humanized NOD-scid IL2Rgamma null mouse infected with Plasmodium falciparum 3D70087/N9 at 50 mg/kg, po up to 96 hrs post dose by LC-MS/MS analysis; assay type: ADME, organism-based; details: in vivo
[15] = Tmax in humanized NOD-scid IL2Rgamma null mouse infected with Plasmodium falciparum 3D70087/N9 at 5 mg/kg, po up to 96 hrs post dose by LC-MS/MS analysis; assay type: ADME, organism-based; details: in vivo
Mus musculus [16] = experiment: AUC in humanized NOD-scid IL2Rgamma null mouse infected with Plasmodium falciparum 3D70087/N9 at […], po up to 24 hrs post dose by LC-MS/MS analysis; assay type: ADME, organism-based; set-up: dose 2.5 mg/kg, time < 24 hr, route oral; details: in vivo
[17] = Cmax in humanized NOD-scid IL2Rgamma null mouse infected with Plasmodium falciparum 3D70087/N9 at 10 mg/kg, po up to 96 hrs post dose by LC-MS/MS analysis; assay type: ADME, organism-based; set-up: dose 10 mg/kg, route oral; details: in vivo
Mus musculus [18] = experiment: AUC in humanized NOD-scid IL2Rgamma null mouse infected with Plasmodium falciparum 3D70087/N9 at 5 mg/kg, po up to 24 hrs post dose by LC-MS/MS analysis; assay type: ADME, organism-based; set-up: time < 24 hr, dose 5 mg/kg, route oral; details: in vivo
[19] = Tmax in Balb/c mouse pretreated with CYP inhibitor ABT at 5 mg/kg, po by LC-MS analysis; assay type: ADME, organism-based; details: in vivo
[20] = Tmax in humanized NOD-scid IL2Rgamma null mouse infected with Plasmodium falciparum 3D70087/N9 at […], po up to 96 hrs post dose by LC-MS/MS analysis; assay type: ADME, organism-based; details: in vivo
[21] = Cmax in Balb/c mouse pretreated with CYP inhibitor ABT at 5 mg/kg, po by LC-MS analysis; assay type: ADME, organism-based; set-up: dose 5 mg/kg, route oral; details: in vivo
[22] = Volume of distribution in Balb/c mouse at […], iv by LC-MS analysis; assay type: ADME, organism-based; details: in vivo
[23] = Cmax in Balb/c mouse at 20 mg/kg, po by LC-MS analysis; assay type: ADME, organism-based; set-up: dose 20 mg/kg, route oral; details: in vivo
[24] = Tmax in Balb/c mouse pretreated with CYP inhibitor ABT at 20 mg/kg, po by LC-MS analysis; assay type: ADME, organism-based; details: in vivo
[25] = Apparent half life in Balb/c mouse pretreated with CYP inhibitor ABT at 20 mg/kg, po by LC-MS analysis; assay type: ADME, organism-based; details: in vivo, read-out: t1/2(app) (converted)
[26] = Apparent half life in Balb/c mouse at 20 mg/kg, po by LC-MS analysis; assay type: ADME, organism-based; details: in vivo, read-out: t1/2(app) (converted)
Mus musculus [27] = experiment: AUC (0 to infinity) in Balb/c mouse at 20 mg/kg, po by LC-MS analysis; assay type: ADME, organism-based; set-up: dose 20 mg/kg, route oral, time infinity; details: in vivo
Mus musculus [28] = experiment: AUC (0 to infinity) in Balb/c mouse at 2 mg/kg, iv by LC-MS analysis; assay type: ADME, organism-based; set-up: dose 2 mg/kg, route intravenous, time infinity; details: in vivo
Mus musculus [29] = experiment: AUC (0 to infinity) in Balb/c mouse pretreated with CYP inhibitor ABT at 20 mg/kg, po by LC-MS analysis; assay type: ADME, organism-based; set-up: dose 20 mg/kg, route oral, time infinity; details: in vivo
[30] = Cmax in Balb/c mouse pretreated with CYP inhibitor ABT at 20 mg/kg, po by LC-MS analysis; assay type: ADME, organism-based; set-up: dose 20 mg/kg, route oral; details: in vivo
[31] = Tmax in Balb/c mouse at 20 mg/kg, po by LC-MS analysis; assay type: ADME, organism-based; details: in vivo
[32] = Apparent half life in Balb/c mouse at 2 mg/kg, iv by LC-MS analysis; assay type: ADME, organism-based; details: in vivo, read-out: t1/2(app) (converted)

SMILES	remaining at 0.5 h, 0.1 µM [1] [%]	remaining at 0.5 h, 0.1 µM [2] [%]	remaining at 0.5 h, 0.1 µM [3] [%]	other results
NS(=O)(=O)c1ccc(-c2ccc3nccc(-c4ccncc4)c3n2)cc1	36	13	76	
NS(=O)(=O)c1cccc(-c2ccc3nccc(-c4ccncc4F)c3n2)c1				logD at 1 h [4]: 1.8 to 4.2
NS(=O)(=O)c1cccc(-c2ccc3nccc(-c4ccnc(C(F)(F)F)c4)c3n2)c1	96	97	95	AUC (Mus musculus [5]): 2035 µM/min; AUC (Mus musculus [6]): 5591 µM/min; Tmax [7]: 4 h; Cmax [8]: 1470 nM; AUC (Mus musculus [9]): 350 µM/min; Drug metabolism [10]: Metabolite_Detected; Cmax at 96 h [11]: 750 nM; logD at 1 h [4]: 1.8 to 4.2; Cmax [12]: 6360 nM; half-life [13]: 33 h; Tmax [14]: 2.5 h; Tmax [15]: 4 h; AUC (Mus musculus [16]): 658 µM/min; Cmax [17]: 2230 nM; AUC (Mus musculus [18]): 1198 µM/min; Tmax [19]: 1 h; Tmax at 96 h [20]: 4 h; Cmax [21]: 2800 nM; Vd [22]: 7 L/kg
O=S(=O)(c1cccc(-c2ccc3nccc(-c4ccncc4)c3n2)c1)N1CC[C@H](O)C1	10	12	17	
O=S(=O)(NCCN1CCCC1)c1cccc(-c2ccc3nccc(-c4ccnc(C(F)(F)F)c4)c3n2)c1	16	8	14	
NS(=O)(=O)c1cncc(-c2ccc3nccc(-c4cn[nH]c4)c3n2)c1		2		
C[C@@H]1CN(S(=O)(=O)c2cccc(-c3ccc4nccc(-c5ccncc5)c4n3)c2)C[C@H](C)N1	36	33	34	
CS(=O)(=O)Nc1ccc2nccc(-c3ccncc3)c2n1	94	95	96	
O=S(=O)(CCN1CCCC1)c1cccc(-c2ccc3nccc(-c4ccncc4)c3n2)c1	66	60	56	
Nc1cccc(-c2ccc3nccc(-c4ccncc4)c3n2)c1	61	54	78	
O=S(=O)(c1cccc(-c2ccc3nccc(-c4ccncc4)c3n2)c1)N1CCC(O)CC1	11	7	5	
NS(=O)(=O)c1cccc(-c2ccc3nccc(-c4ccncc4)c3n2)c1				Cmax [23]: 5000 nM; Tmax [24]: 0.5 to 1 h; half-life [25]: 3.2 h; half-life [26]: 1.6 h; AUC (Mus musculus [27]): 523 µM/min; AUC (Mus musculus [28]): 111 µM/min; AUC (Mus musculus [29]): 243 µM/min; Cmax [30]: 500 nM; Tmax [31]: 0.5 h; half-life [32]: 2.5 h

More lines, main results first:

remaining at 0.5 h, 0.1 µM [1] [%]	remaining at 0.5 h, 0.1 µM [2] [%]	remaining at 0.5 h, 0.1 µM [3] [%]	SMILES	other results
59	52	95	O=S(=O)(CCO)c1cccc(-c2ccc3nccc(-c4ccncc4)c3n2)c1	
6	2	42	O=S(=O)(NCc1ccccc1)c1cccc(-c2ccc3nccc(-c4ccncc4)c3n2)c1	logD at 1 h [4]: 1.8 to 4.2
49	50	59	CS(=O)(=O)Nc1cccc(-c2ccc3nccc(-c4ccncc4)c3n2)c1	
8	19	2	O=S(=O)(NCC1COC1)c1cccc(-c2ccc3nccc(-c4ccncc4)c3n2)c1	
< 1	< 1	< 1	O=S(=O)(NCCN1CCOCC1)c1cccc(-c2ccc3nccc(-c4ccncc4)c3n2)c1	
